Test results: US10035800B2 (AbbVie Inc., priority 2013, dated 2018)

What was measured:
[1] = system: breast cancer cell line MX-1; assay: MX-1 cell line proliferation assay; assay type: cell-based; details: MX-1 cells, 3-day proliferation assay, Cell Titer Glo; read-out: Cellular proliferation: EC50
In short: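 MX-1 cells at 5000/well, in RPMI 1640 with 10% FBS, were exposed to compounds for 3 days. Final concentrations ranged 3 μM–0.1 nM or 1 μM–0.03 nM, in 3-fold steps. Cell Titer Glo luminescence was normalized to DMSO and fitted sigmoidally for EC50; overall MSR 2.1.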

BRD4 (BDI_K57-E168) = molecular target: T1, BRD4 (BDI_K57-E168) (Homo sapiens, UniProt O60885); assay: TR-FRET bromodomain binding assay, first bromodomain of BRD4; details: 100 nM probe
T1 construct: BD1: amino acids K57-E168; made in house
In short: (§1)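 Probe displacement by TR-FRET: 8 nM His-BRD4 bromodomain, 1 nM Eu-anti-His, Alexa647 BET-inhibitor probe at 100 nM (BDI) or 30 nM (BDII); 20 mM Na phosphate pH 6.0, 2% DMSO; 1 h RT. Ex 340, Em 495/520. IC50 from 4PL fit; Ki from IC50, probe Kd and probe concentration.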

BRD4 (BDII_E352-M457) = molecular target: T2, BRD4 (BDII_E352-M457) (Homo sapiens, UniProt O60885); assay: TR-FRET bromodomain binding assay, second bromodomain of BRD4; details: 30 nM probe
T2 construct: protocol; made in house
In short: as §1

[2] = TR-FRET assay protocol G (compound 0.92 μM-15 pM)
[3] = TR-FRET assay protocol E (compound 9.19 μM-150 pM)

Row | EC50 [1] [nM] | Ki (BRD4 (BDI_K57-E168); [2]) [nM] | Ki (BRD4 (BDII_E352-M457); [2]) [nM] | Ki (BRD4 (BDI_K57-E168); [3]) [nM] | Ki (BRD4 (BDII_E352-M457); [3]) [nM] | Molecule
1 | 899 | 6.97 | 1.53 |  |  | Cn1cc2c3c(c[nH]c3c1=O)CN(Cc1ccccc1OCc1ccccn1)c1ccc(CS(C)(=O)=O)cc1-2 [Example 264, 10-methyl-7-((methylsulfonyl)methyl)-4-(2-(pyridin-2-ylmethoxy)benzyl)-3,4-dihydro-1H-1,4,10-triazadibenzo[cd,f]azulen-11(10H)-one]
2 | 34.2 | 8.18 | 2.05 |  |  | Cn1cc2c3c(c[nH]c3c1=O)C(CO)N(c1ccc(F)cc1F)c1ccc(CS(C)(=O)=O)cc1-2 (stereo not drawn) [Example 200, 4-(2,4-difluorophenyl)-3-(hydroxymethyl)-10-methyl-7-((methylsulfonyl)methyl)-3,4-dihydro-1H-1,4,10-triazadibenzo[cd,f]azulen-11(10H)-one]
3 | 72.9 | 29.1 | 2 |  |  | CC(=O)OCCCCCCC1c2c[nH]c3c(=O)n(C)cc(c23)-c2cc(CS(C)(=O)=O)ccc2N1c1ccc(F)cc1F (stereo not drawn) [Example 128, 6-(4-(2,4-difluorophenyl)-10-methyl-7-((methylsulfonyl)methyl)-11-oxo-3,4,10,11-tetrahydro-1H-1,4,10-triazadibenzo[cd,f]azulen-3-yl)hexyl acetate]
4 | > 1000 | 200 | 29.1 |  |  | Cn1cc2c3c(c[nH]c3c1=O)C(CN1C(=O)c3ccccc3C1=O)N(c1ccc(F)cc1F)c1ccc(CS(C)(=O)=O)cc1-2 [Example 205, (R)-2-((4-(2,4-difluorophenyl)-10-methyl-7-((methylsulfonyl)methyl)-11-oxo-3,4,10,11-tetrahydro-1H-1,4,10-triazadibenzo[cd,f]azulen-3-yl)methyl)isoindoline-1,3-dione]
5 | 331 | 35.5 | 95.1 |  |  | tert-butyl 4-(4-(4-fluorophenyl)-10-methyl-7-((methylsulfonyl)methyl)-11-oxo-3,4,10,11-tetrahydro-1H-1,4,10-triazadibenzo[cd,f]azulene-3-carbonyl)piperazine-1-carboxylate [Example 35]
6 | 431 | 40.8 | 3.25 |  |  | Cn1cc2c3c(c[nH]c3c1=O)C(c1ccccc1)N(c1ccc(F)cc1F)c1ccc(CS(C)(=O)=O)cc1-2 (stereo not drawn) [Example 214, 4-(2,4-difluorophenyl)-10-methyl-7-((methylsulfonyl)methyl)-3-phenyl-3,4-dihydro-1H-1,4,10-triazadibenzo[cd,f]azulen-11(10H)-one]
7 | 43.1 | 3.25 | 3.24 |  |  | CC(C)c1ccc(NC(=O)N2Cc3c[nH]c4c(=O)n(C)cc(c34)-c3cc(CS(C)(=O)=O)ccc32)cc1 [Example 69, N-(4-isopropylphenyl)-10-methyl-7-((methylsulfonyl)methyl)-11-oxo-10,11-dihydro-1H-1,4,10-triazadibenzo[cd,f]azulene-4(3H)-carboxamide]
8 | 174 | 4.43 | 13.2 |  |  | Cn1cc2c3c(c[nH]c3c1=O)CN(CCCc1ccccc1)c1c(F)cc(F)cc1-2 [Example 51, 5,7-difluoro-10-methyl-4-(3-phenylpropyl)-3,4-dihydro-1H-1,4,10-triazadibenzo[cd,f]azulen-11(10H)-one]
9 | 8.33 | 1.37 | 1.27 |  |  | CCCCN1Cc2c[nH]c3c(=O)n(C)cc(c23)-c2cc(F)cc(F)c21 [Example 47, 4-butyl-5,7-difluoro-10-methyl-3,4-dihydro-1H-1,4,10-triazadibenzo[cd,f]azulen-11(10H)-one]
10 | 7.04 | 6.42 | 3.79 |  |  | Cn1cc2c3c(c[nH]c3c1=O)CN(C(=O)CC(C)(C)C)c1ccc(CS(C)(=O)=O)cc1-2 [Example 107, 4-(3,3-dimethylbutanoyl)-10-methyl-7-((methylsulfonyl)methyl)-3,4-dihydro-1H-1,4,10-triazadibenzo[cd,f]azulen-11(10H)-one]
11 | 118 | 5.67 | 7.47 |  |  | COc1cc(N2Cc3c[nH]c4c(=O)n(C)cc(c34)-c3cc(CS(C)(=O)=O)ccc32)cc(OC)c1OC [Example 211, 10-methyl-7-((methylsulfonyl)methyl)-4-(3,4,5-trimethoxyphenyl)-3,4-dihydro-1H-1,4,10-triazadibenzo[cd,f]azulen-11(10H)-one]
12 | > 1000 | 10.7 | 2.35 |  |  | Cn1cc2c3c(c[nH]c3c1=O)C(CCC(=O)N1CCNCC1)N(c1ccc(F)cc1F)c1ccc(CS(C)(=O)=O)cc1-2 (stereo not drawn) [Example 131, 4-(2,4-difluorophenyl)-10-methyl-7-((methylsulfonyl)methyl)-3-(3-oxo-3-(piperazin-1-yl)propyl)-3,4-dihydro-1H-1,4,10-triazadibenzo[cd,f]azulen-11(10H)-one]
13 | 165 | 13.9 | 2.11 |  |  | Cn1cc2c3c(c[nH]c3c1=O)CN(C(=O)Cc1ccccc1)c1ccc(CS(C)(=O)=O)cc1-2 [Example 108, 10-methyl-7-((methylsulfonyl)methyl)-4-(2-phenylacetyl)-3,4-dihydro-1H-1,4,10-triazadibenzo[cd,f]azulen-11(10H)-one]
14 | 21.1 | 2.34 | 9.19 |  |  | Cn1cc2c3c(c[nH]c3c1=O)CN(CC(C)(C)CN1CCOCC1)c1ccc(CS(C)(=O)=O)cc1-2 [Example 257, 4-(2,2-dimethyl-3-morpholinopropyl)-10-methyl-7-((methylsulfonyl)methyl)-3,4-dihydro-1H-1,4,10-triazadibenzo[cd,f]azulen-11(10H)-one]
15 | 250 | 16.2 | 2.5 |  |  | Cn1cc2c3c(c[nH]c3c1=O)C(CN)N(c1ccc(F)cc1F)c1ccc(CS(C)(=O)=O)cc1-2 (stereo not drawn) [Example 129, 3-(aminomethyl)-4-(2,4-difluorophenyl)-10-methyl-7-((methylsulfonyl)methyl)-3,4-dihydro-1H-1,4,10-triazadibenzo[cd,f]azulen-11(10H)-one]
16 | 370 |  |  | 246 | 43.8 | CC(C)CC1Nc2ccc(CS(C)(=O)=O)cc2-c2cn(C)c(=O)c3[nH]cc1c23 (racemic) [Example 19, 3-isobutyl-10-methyl-7-((methylsulfonyl)methyl)-3,4-dihydro-1H-1,4,10-triazadibenzo[cd,f]azulen-11(10H)-one]
17 | 33 | 31.6 | 12.3 |  |  | COc1cccc(OC)c1C1c2c[nH]c3c(=O)n(C)cc(c23)-c2cc(CS(C)(=O)=O)ccc2N1c1ccc(F)cc1F (racemic) [Example 221, 4-(2,4-difluorophenyl)-3-(2,6-dimethoxyphenyl)-10-methyl-7-((methylsulfonyl)methyl)-3,4-dihydro-1H-1,4,10-triazadibenzo[cd,f]azulen-11(10H)-one]
18 | 2.13 | 0.43 | 1.02 |  |  | Cn1cc2c3c(c[nH]c3c1=O)CN(c1cccnc1)c1ccc(CS(C)(=O)=O)cc1-2 [Example 244, 10-methyl-7-((methylsulfonyl)methyl)-4-(pyridin-3-yl)-3,4-dihydro-1H-1,4,10-triazadibenzo[cd,f]azulen-11(10H)-one]
19 | 14.2 | 1.01 | 3.55 |  |  | CN1CCN(Cc2[nH]c3c(=O)n(C)cc4c3c2CN(c2ccc(Cl)cc2)c2ccc(CS(C)(=O)=O)cc2-4)CC1 [Example 176, 4-(4-chlorophenyl)-10-methyl-2-((4-methylpiperazin-1-yl)methyl)-7-((methylsulfonyl)methyl)-3,4-dihydro-1H-1,4,10-triazadibenzo[cd,f]azulen-11(10H)-one]
20 | 2.59 | 2.84 | 1.63 |  |  | Cn1cc2c3c(c[nH]c3c1=O)CN(C(=O)Oc1ccccc1)c1ccc(CS(C)(=O)=O)cc1-2 [Example 93, phenyl 10-methyl-7-((methylsulfonyl)methyl)-11-oxo-10,11-dihydro-1H-1,4,10-triazadibenzo[cd,f]azulene-4(3H)-carboxylate]
21 | 108 | 16.1 | 2.24 |  |  | Cn1cc2c3c(c[nH]c3c1=O)C(Cn1ccccc1=O)N(c1ccc(F)cc1F)c1ccc(CS(C)(=O)=O)cc1-2 (single isomer, unassigned) [Example 252]
22 | 17.7 | 2.24 | 3.86 |  |  | CCOC(=O)C1c2c[nH]c3c(=O)n(C)cc(c23)-c2cc(CS(C)(=O)=O)ccc2N1c1ccc(F)cc1 [Example 84, (R)-ethyl 4-(4-fluorophenyl)-10-methyl-7-((methylsulfonyl)methyl)-11-oxo-3,4,10,11-tetrahydro-1H-1,4,10-triazadibenzo[cd,f]azulene-3-carboxylate]
23 | 240 | 51.7 | 3.87 |  |  | Cn1cc2c3c(c[nH]c3c1=O)C(CNC(=O)c1ccccc1)N(c1ccc(F)cc1F)c1ccc(CS(C)(=O)=O)cc1-2 (stereo not drawn) [Example 137, N-((4-(2,4-difluorophenyl)-10-methyl-7-((methylsulfonyl)methyl)-11-oxo-3,4,10,11-tetrahydro-1H-1,4,10-triazadibenzo[cd,f]azulen-3-yl)methyl)benzamide]

Row | Molecule | EC50 [1] [nM] | Ki (BRD4 (BDI_K57-E168); [2]) [nM] | Ki (BRD4 (BDII_E352-M457); [2]) [nM] | Ki (BRD4 (BDI_K57-E168); [3]) [nM] | Ki (BRD4 (BDII_E352-M457); [3]) [nM]
24 | Cn1cc2c3c(c[nH]c3c1=O)CN(C(=O)Nc1ccc(F)cc1)c1ccc(CS(C)(=O)=O)cc1-2 [Example 46] | 152 | 13.7 | 7.48 |  | 
